Data as given in patent US10945951B2, “Apparatus for compound dispersion” (Biogen MA Inc., priority 2014, dated 2021).

Columns and labels:
[1] = Live imaging of intrathecally injected Gd-DTPA in dog; type: in vivo
Experimental: For this experiment, an adult male two-year-old beagle was intrathecally injected at the L4-L5 space and live imaging was performed under anesthesia for five hours.
FIGS. 15C-15G show the signal counts corresponding to the presence of Gd-DTPA over the five hour monitoring period. The various monitored locations included the hippocampus, spinal column, substantia nigra, cortex, and striatum.

[2] = PET imaging of distribution of lumbar intrathecally injected 64Cu-DOTA, bolus volume and respiratory vest force; type: in vivo, Cynomolgus monkeys; details: lumbar intrathecal
Experimental: The ability of a time varying force applied to the torso of a patient and increased bolus volumes to enhance CNS exposure of intrathecally injected compounds was tested in cynomolgus monkeys. Specifically, live whole animal positron emission tomography (PET) imaging was used to monitor the distribution of intrathecally injected ^64Cu-DOTA given as a compound surrogate. This approach allowed the direct imaging of the impact of the convective force on compound spread in CSF and the exposure of the primate CNS to the compound. During the experiments, Cynomolgus monkeys were given a lumbar intrathecal injection of ^64Cu-DOTA in a volume of either 0.36 ml (about 3% of the total CSF volume) or 1.86 ml (about 15% of the total CSF volume), see FIG. 6. The 3% total CSF volume was chosen to mimic a typical lumbar intrathecal injection volume of about 5 ml that is used clinically. Following lumbar intrathecal injection, the animals were placed in a respiratory vest for 20 minutes. The vest was turned on for 20 minutes only for those animals in which the effect of the time varying force enhanced convection was tested. Animals wearing the vest without activating the time varying force feature served as controls. Animals were then imaged with PET scanning for a time window of 30-60 min post dosing.

[3] = 20 μl bolus, intrathecal
Experimental: The same amount of each probe was used in each injected bolus. However, the total bolus volumes for the separate injections were 20 μl and 30 μl followed by a 40 μl saline flush. The boluses were injected intrathecally into rodents and the concentration of the two probes was monitored at the lumbar, thoracic, and cervical regions.

[4] = SPECT imaging of two probes injected in a single bolus into lumbar cistern and cisterna magna; type: in vivo, rat; details: single 20 ml bolus, lumbar cistern and cisterna magna injection
Experimental: Two different probes including different isotopes were injected via a single […] bolus into rodents and then imaged at different energies. […] FIG. 8B depicts a structure of the second mitochondria targeting probe ^99mTc-Sestamibi. The bolus was injected into the lumbar cistern and the cisterna magna to help distinguish uptake into interstitial spaces versus uptake into intracellular compartments, see FIG. 8C. […] Consequently, it is apparent that the cell affinity of a compound for the structures and tissue within the CNS should be considered when determining the optimal parameters, such as injection site, bolus volume, and the applied forces, needed to ensure a compound reaches a desired target site.

Question: Which “signal intensity over time in hippocampus, spinal column, substantia nigra, cortex and striatum” value ([1]; intrathecal injection at L4-L5, five hour monitoring period) does the source give for O=C([O-])CN(CCN(CC(=O)[O-])CC(=O)O)CCN(CC(=O)[O-])CC(=O)O.[Gd+3] [Gd-DTPA] here?
Answer: increase in the measured signal intensity over time

Question: What about the “location in the brain (cellular uptake vs interstitial spaces)” value ([1]; intrathecal injection at L4-L5, live imaging five hours) of the same compound?
Answer: not taken up into the cells but instead was located in the interstitial spaces of the brain

Question: For O=C([O-])CN1CCN(CC(=O)O)CCN(CC(=O)[O-])CCN(CC(=O)O)CC1.[64Cu+2] [^64Cu-DOTA], which “CNS exposure / compound spread in CSF” value ([2]; 3% CSF volume (0.36 ml), respiratory vest turned on 20 minutes, PET 30-60 min post dosing) is on record?
Answer: the entire spinal cord, and brainstem displayed exposure

Question: What about the “CNS exposure / compound spread in CSF” value ([2]; 3% CSF volume (0.36 ml), vest not turned on, PET 30-60 min post dosing) of the same compound?
Answer: only reached the lower thoracic spinal cord

Question: And the “CNS exposure / compound spread in CSF” value ([2]; 15% CSF volume (1.86 ml), combined with time varying forces of the vest)?
Answer: greatest rostral spread

Question: What about the “CNS exposure / compound spread in CSF” value ([2]; 15% CSF volume (1.86 ml), vest not activated, PET 30-60 min post dosing) of the same compound?
Answer: exposure over the entire spinal cord and portions of the brainstem

Question: What does the source list for [C-]#[N+]CC(C)(C)OC.[C-]#[N+]CC(C)(C)OC.[C-]#[N+]CC(C)(C)OC.[C-]#[N+]CC(C)(C)OC.[C-]#[N+]CC(C)(C)OC.[C-]#[N+]CC(C)(C)OC.[Tc] [^99mTc-Sestamibi]?
Answer: concentration in the lumbar region at injection [3]: initially high concentration; concentration over time in the thoracic and cervical regions [3]: did not increase; distribution along the CNS [4]: showed very little distribution along the CNS

Question: For ^111In-DTPA, which “distribution along the CNS” value [4] is on record?
Answer: showed distribution from the injection site towards the head of the rodent along the CNS
